In US20080051332A1, “METHOD OF MODULATING HEMATOPOIETIC STEM CELLS AND TREATING HEMATOLOGIC DISEASES USING INTRANASAL PARATHYROID HORMONE” (Nastech Pharmaceutical Company Inc., priority 2005, published 2008):
“Also recorded” adds a separate entry of the source. Read-outs that look alike come from different tables or passages of the source. Ends that are not written are not given here.

Tests used:
[1] = tested on: normal, human-derived tracheal/bronchial epithelial cells (EpiAirway™ Tissue Model); test: Cell viability, MTT assay, EpiAirway tissue inserts; type: cell-based; settings: after 1 h incubation with formulation
Description: (§1) The effect of various “Generally Regarded As Safe” (GRAS) permeation enhancers was measured in a MatTek cell model. Three GRAS permeation enhancers (EDTA, ethanol, Tween 80) were evaluated individually or in combination with one another. Sorbitol was used as a tonicifier to adjust the osmolarity of formulations to 220 mOsm/kg whenever applicable. The formulation pH was adjusted to 4. The permeation enhancer combination of 45 mg/ml M-β-CD, 1 mg/ml DDPC, and 1 mg/ml EDTA at pH 4.5 served as the positive control. The formulation contains sorbitol only was used as the negative control. Each formulation is evaluated in the presence and absence of preservative. For all formulations, sodium benzoate is used as the preservative.
(§2) The cell line MatTek Corp. (Ashland, Mass.) are normal, human-derived tracheal/bronchial epithelial cells (EpiAirway™ Tissue Model). Cells are cultured for 24-48 hours before use to produce a tissue insert.
(§3) Each tissue insert is placed in an individual well containing 1 ml media. […] Transepithelial electrical resistance (TER) is measured before and after the 1-h incubation. Following the incubation, the cell inserts are analyzed for cell viability via the mitochondrial dehydrogenase (MDH) assay.
Cell viability is assessed using the MTT assay (MTT-100, MatTek kit). […] The optical density of the samples was measured at 550 nm on a plate reader.

[2] = tested on: normal, human-derived tracheal/bronchial epithelial cells (EpiAirway™ Tissue Model); test: Transepithelial electrical resistance (TER) in MatTek EpiAirway tissue model; type: cell-based; settings: 100 μl formulation on apical surface, 1 h at 37° C., TER before and after
Description: The effect of various “Generally Regarded As Safe” (GRAS) permeation enhancers was measured in a MatTek cell model. Three GRAS permeation enhancers (EDTA, ethanol, Tween 80) were evaluated individually or in combination with one another. Sorbitol was used as a tonicifier to adjust the osmolarity of formulations to 220 mOsm/kg whenever applicable. The formulation pH was adjusted to 4. The permeation enhancer combination of 45 mg/ml M-β-CD, 1 mg/ml DDPC, and 1 mg/ml EDTA at pH 4.5 served as the positive control. The formulation contains sorbitol only was used as the negative control. Each formulation is evaluated in the presence and absence of preservative. […]
as §3
TER measurements are accomplished using the Endohm-12 Tissue Resistance Measurement Chamber connected to the EVOM Epithelial Volt-ohmmeter (World Precision Instruments, Sarasota, Fla.) with the electrode leads. […] The background resistance is measured with 1.5 ml Media in the Endohm tissue chamber and 300 μl Media in the blank insert. […] Resistance is expressed as (resistance measured−blank)×0.6 cm^2. […]

[3] = tested on: normal, human-derived tracheal/bronchial epithelial cells (EpiAirway™ Tissue Model); test: Cytotoxicity, LDH assay, EpiAirway tissue inserts; type: cell-based; settings: after 1 h incubation with formulation
Description: The effect of various “Generally Regarded As Safe” (GRAS) permeation enhancers was measured in a MatTek cell model. Three GRAS permeation enhancers (EDTA, ethanol, Tween 80) were evaluated individually or in combination with one another. Sorbitol was used as a tonicifier to adjust the osmolarity of formulations to 220 mOsm/kg whenever applicable. The formulation pH was adjusted to 4. The permeation enhancer combination of 45 mg/ml M-β-CD, 1 mg/ml DDPC, and 1 mg/ml EDTA at pH 4.5 served as the positive control. The formulation contains sorbitol only was used as the negative control. Each formulation is evaluated in the presence and absence of preservative. For all formulations, sodium benzoate is used as the preservative. […]
as §3
The amount of cell death is assayed by measuring the loss of lactate dehydrogenase (LDH) from the cells using a CytoTox 96 Cytoxicity Assay Kit (Promega Corp., Madison, Wis.). LDH analysis of the apical media is evaluated. […] Following incubation, 50 μl of stop solution is added to each well and the plates read on an optical density plate reader at 490 nm.

[4] = after feeding to rats; cited from earlier work
[5] = tested on: Human chondrocytes; test: Alginate-based cartilage growth model, type II collagen production; type: cell-based
Description: Next, the alginate-based cell system (cartilage growth model) was used to determine whether PTH dosing could stimulate chondrocytes to produce cartilage. […] Type II collagen is a major component of the extracellular matrix of nasal cartilage and therefore was used as a molecular marker for cartilage growth in this assay.
The cell-containing alginate beads were incubated in the presence of various test solutions for 12 days at 37° C., 5% CO2. After the incubation, the alginate beads were processed using an extraction method in order to quantify the production of type II collagen.
The effect of PTH on Type II collagen production was studied. The positive control in this study was re-differentiation media and the negative control was growth media. PTH was tested in a range of 20 μg to 200 μg as FORSTEO or a formulation containing the formulation enhancers (sample 1, above).
In addition, type II collagen production was assessed in the presence of a formulation containing 5 μg of insulin-like growth factor I (IGF-I). IGF-I is known to be a potent promoter of cartilage type-II collagen expression in chondrocytes and thus is an ideal positive control for the assay.

[6] = anesthetized rats, cited from earlier work
[7] = tested on: ciliary motility; settings: pyo compound without obvious ultrastructural lesions; phenazine derivative with some membrane disruption; cited from earlier work
[8] = tested on: normal, human-derived tracheal/bronchial epithelial cells (EpiAirway™ Tissue Model); type: in vitro ADME
Description: as §1, §2
Each tissue insert is placed in an individual well containing 1 ml media. On the apical surface of the inserts, 100 μl of test formulation is applied, and the sample is shaken for 1 h at 37° C. […] Transepithelial electrical resistance (TER) is measured before and after the 1-h incubation. Following the incubation, the cell inserts are analyzed for cell viability via the mitochondrial dehydrogenase (MDH) assay. […]

[9] = 100 μg/day by injection, preliminary results; cited from earlier work
[10] = tested on: hematopoietic stem cells; settings: mice, Calvi et al. 2003; cited from earlier work
[11] = tested on: human chondrocyte cell monolayer; test: Human chondrocyte monolayer proliferation (MTT); type: cell-based; settings: MTT at t=0 and after 4 days at 37° C./5% CO2
From the text: A human chondrocyte cell monolayer model was employed to examine cell proliferation in the presence of PTH in a simple formulation (FORSTEO) or a formulation containing PTH and the formulation enhancers (sample 1, above). These were compared to a positive control (media containing antibiotics, insulin, TGF-beta and IGF-1) and negative control (media devoid of any cell growth components). It was desired to understand if the presence of PTH could stimulate chondrocyte growth. To this end, the above mentioned formulations and controls were applied to the apical side of the chondrocyte monolayers, and the MTT assay (Example 3) was conducted at t=0 and then after 4 days incubation at 37° C./5% CO2.

With Triton X the “cell viability (MTT assay)” value [1] was “significant reduction of cell viability”, the TER reduction [2] was “significant TER reduction” and the “cytotoxicity (LDH assay)” value [3] was “significant cytotoxicity”.

For Phaseolus vulgaris hemagglutinin, the oral bioavailability [4] is listed as “more than 10%”.

For “calcitonin (CGNLSTCMLGTYTQDFNKFHTFPQTAIGVGAP; ends and bridges not checked; cysteine pairing not given here; UniProt P01258 85-116, looked up)”, the “type II collagen production” value ([5]; 20 μg or 200 μg calcitonin) was “no effect”.

In the case of human growth hormone, the nasal bioavailability ([6]; with N-acetyl-L-cysteine (ACS)) is given as 12.2% and the nasal bioavailability ([6]; without N-acetyl-L-cysteine) is given as 7.5%.

For “2-alkyl-4-hydroxyquinolines [pyo compound]”, the “concentration producing ciliostasis / inhibiting ciliary motility” value [7] is given as 50 µg/mL.

In the case of insulin-like growth factor I [IGF-I], the “type II collagen production” value ([5]; 5 μg IGF-I, positive control) is reported as “greater than 1.2 pg per culture”.

In the case of `CC[C@H](C)[C@H](NC(=O)[C@H](CCC(=O)O)NC(=O)[C@H](CO)NC(=O)[C@@H](NC(=O)[C@@H](N)CO)C(C)C)C(=O)N[C@@H](CCC(N)=O)C(=O)N[C@@H](CC(C)C)C(=O)N[C@@H](CCSC)C(=O)N[C@@H](Cc1cnc[nH]1)C(=O)N[C@@H](CC(N)=O)C(=O)N[C@@H](CC(C)C)C(=O)NCC(=O)N[C@@H](CCCCN)C(=O)N[C@@H](Cc1cnc[nH]1)C(=O)N[C@@H](CC(C)C)C(=O)N[C@@H](CC(N)=O)C(=O)N[C@@H](CO)C(=O)N[C@@H](CCSC)C(=O)N[C@@H](CCC(=O)O)C(=O)N[C@@H](CCCN=C(N)N)C(=O)N[C@H](C(=O)N[C@@H](CCC(=O)O)C(=O)N[C@@H](Cc1c[nH]c2ccccc12)C(=O)N[C@@H](CC(C)C)C(=O)N[C@@H](CCCN=C(N)N)C(=O)N[C@@H](CCCCN)C(=O)N[C@@H](CCCCN)C(=O)N[C@@H](CC(C)C)C(=O)N[C@@H](CCC(N)=O)C(=O)N[C@@H](CC(=O)O)C(=O)N[C@H](C(=O)N[C@@H](Cc1cnc[nH]1)C(=O)N[C@@H](CC(N)=O)C(=O)N[C@@H](Cc1ccccc1)C(=O)O)C(C)C)C(C)C` [Teriparatide, teriparatide], the “impact of preservative on Teriparatide permeation” value [8] is given as “no significant impact”, the “success rates in bone marrow transplant patients” value [9] is given as “improves success rates” and the “number of functional HSCs and survival after bone marrow transplantation” value [10] is given as “increases the number of functional HSCs and survival after bone marrow transplantation”. For the same compound, the “type II collagen production” value ([5]; 20 μg of PTH, citrate buffer or with permeation enhancers, 12 days) was “did not induce a substantial production of type II collagen”, the “type II collagen production” value ([5]; high concentration of PTH (200 μg) in a simple formulation, 12 days, listed as PTH) was “a significant increase in type II collagen was observed; also recorded: modest amounts of type II collagen production” and the “type II collagen production” value ([5]; high concentration of PTH in the presence of permeation enhancers, 12 days, listed as PTH) was “essentially no production of type II collagen; also recorded: did not induce any cartilage growth”. The chondrocyte proliferation [11] was “does not promote growth of chondrocytes”.
